Source: the supplement of paper PMC11208160

Experiment: recombinant barcode read abundance after kanamycin selection (control-corrected) (log10(CPM+1)); higher = more efficient recombination; sequences stand for … in AGTGCAGAGAAAATCGGCCAGTTTTCTCTGCCTGCAGTCCGCATGCCGT…ATTTATGCAGCGGACTGCCTTTCTCCCAAAGTGATAAACCGGACAGTATCATGGACCGGTTTTCCCGGTAATCCGTATTTGCAAGGTTGGTTTCACT; site = the 11-nt target
Method in brief: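 Two replicates per condition were plated: chloramphenicol/ampicillin LB agar for the control, and chloramphenicol/ampicillin/kanamycin with 0.1 mM IPTG for selection. The pooled E. coli screen behind them paired targets with IS621 bridge RNA target-binding loops. Recombination efficiency is expressed from averaged, control-corrected barcode counts per million at recombinant junctions, as log10(CPM+1).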

| Sequence | recombinant barcode read abundance (log10) |
| --- | --- |
| GAGTCCTAGTGGGTTCTAACCTGTTGCCTAG [GAGTCCTCTAG_LTGcore_AG_RTGcore_CT] (site GAGTCCTCTAG) (LTG core: AG, RTG core: CT) | 0.445 |
| ATGTCCCAATGGGTTCTAACCTGTTGCTCAG [ATGTCCCCTGA_LTGcore_AA_RTGcore_CT] (site ATGTCCCCTGA) (LTG core: AA, RTG core: CT) | 0.274 |
| TTATAAAACTGGGTTCTAACCTGTTGCCTAG [TTATAAACTAG_LTGcore_AC_RTGcore_CT] (site TTATAAACTAG) (LTG core: AC, RTG core: CT) | 0.39 |
| ACGGGACTTTGGGTTCTAACCTGTTGCAGAG [ACGGGACCTCT_LTGcore_TT_RTGcore_CT] (site ACGGGACCTCT) (LTG core: TT, RTG core: CT) | 0.0241 |
| AAACAGTCTTGGGTTCTAACCTGTTGCCTTT [AAACAGTCTAG_LTGcore_CT_RTGcore_AA] (site AAACAGTCTAG) (LTG core: CT, RTG core: AA) | 1.32 |
| AGTCTTATGTGGGTTCTAACCTGTTGCCAAG [AGTCTTACTTG_LTGcore_TG_RTGcore_CT] (site AGTCTTACTTG) (LTG core: TG, RTG core: CT) | 0.0537 |
| GGCTCCCAATGGGTTCTAACCTGTTGCGGTT [GGCTCCCCTCC_LTGcore_AA_RTGcore_AA] (site GGCTCCCCTCC) (LTG core: AA, RTG core: AA) | 0.102 |
| CGCGCCCTTTGGGTTCTAACCTGTTGCGGAA [CGCGCCCCTCC_LTGcore_TT_RTGcore_TT] (site CGCGCCCCTCC) (LTG core: TT, RTG core: TT) | 0.156 |
| GAGTCCTCATGGGTTCTAACCTGTTGCCTAG [GAGTCCTCTAG_LTGcore_CA_RTGcore_CT] (site GAGTCCTCTAG) (LTG core: CA, RTG core: CT) | 1.08 |
| AGTCTTACTTGGGTTCTAACCTGTTGCCACT [AGTCTTACTTG_LTGcore_CT_RTGcore_AG] (site AGTCTTACTTG) (LTG core: CT, RTG core: AG) | 0.0729 |
| TAGAGGGTATGGGTTCTAACCTGTTGCGGAG [TAGAGGGCTCC_LTGcore_TA_RTGcore_CT] (site TAGAGGGCTCC) (LTG core: TA, RTG core: CT) | 0.204 |
| GGGAGCCTTTGGGTTCTAACCTGTTGCTGAG [GGGAGCCCTCA_LTGcore_TT_RTGcore_CT] (site GGGAGCCCTCA) (LTG core: TT, RTG core: CT) | 0.364 |
| GAGCCCACTTGGGTTCTAACCTGTTGCCTGC [GAGCCCACTAG_LTGcore_CT_RTGcore_GC] (site GAGCCCACTAG) (LTG core: CT, RTG core: GC) | 0.3 |
| TAAGAATCTTGGGTTCTAACCTGTTGCCTTA [TAAGAATCTAG_LTGcore_CT_RTGcore_TA] (site TAAGAATCTAG) (LTG core: CT, RTG core: TA) | 0.138 |
| AGGCGGTCATGGGTTCTAACCTGTTGCTTAG [AGGCGGTCTAA_LTGcore_CA_RTGcore_CT] (site AGGCGGTCTAA) (LTG core: CA, RTG core: CT) | 0.322 |
| GGACACCATTGGGTTCTAACCTGTTGCCTAG [GGACACCCTAG_LTGcore_AT_RTGcore_CT] (site GGACACCCTAG) (LTG core: AT, RTG core: CT) | 0.15 |
| TAAGAATCTTGGGTTCTAACCTGTTGCCTAT [TAAGAATCTAG_LTGcore_CT_RTGcore_AT] (site TAAGAATCTAG) (LTG core: CT, RTG core: AT) | 0.0438 |
| AAACAGTCTTGGGTTCTAACCTGTTGCCTCG [AAACAGTCTAG_LTGcore_CT_RTGcore_CG] (site AAACAGTCTAG) (LTG core: CT, RTG core: CG) | 1.3 |
| GGGCGTGCTTGGGTTCTAACCTGTTGCCTTG [GGGCGTGCTAG_LTGcore_CT_RTGcore_CA] (site GGGCGTGCTAG) (LTG core: CT, RTG core: CA) | 0.0774 |
| CGCGCCCTCTGGGTTCTAACCTGTTGCGGAG [CGCGCCCCTCC_LTGcore_TC_RTGcore_CT] (site CGCGCCCCTCC) (LTG core: TC, RTG core: CT) | 0.264 |
| GTCGCCCCTTGGGTTCTAACCTGTTGCTATT [GTCGCCCCTTA_LTGcore_CT_RTGcore_AA] (site GTCGCCCCTTA) (LTG core: CT, RTG core: AA) | 0.214 |
| ACGGGACCTTGGGTTCTAACCTGTTGCAGGA [ACGGGACCTCT_LTGcore_CT_RTGcore_TC] (site ACGGGACCTCT) (LTG core: CT, RTG core: TC) | 0.528 |
| TGATACCTCTGGGTTCTAACCTGTTGCGTAG [TGATACCCTAC_LTGcore_TC_RTGcore_CT] (site TGATACCCTAC) (LTG core: TC, RTG core: CT) | 0.146 |

| Sequence | recombinant barcode read abundance (log10) |
| --- | --- |
| ACGGGACAGTGGGTTCTAACCTGTTGCAGCT [ACGGGACCTCT_LTGcore_AG_RTGcore_AG] (site ACGGGACCTCT) (LTG core: AG, RTG core: AG) | 0.237 |
| TGTATTCCATGGGTTCTAACCTGTTGCCTTG [TGTATTCCTAG_LTGcore_CA_RTGcore_CA] (site TGTATTCCTAG) (LTG core: CA, RTG core: CA) | 0.579 |
| GGGAGCCAATGGGTTCTAACCTGTTGCTGAG [GGGAGCCCTCA_LTGcore_AA_RTGcore_CT] (site GGGAGCCCTCA) (LTG core: AA, RTG core: CT) | 0.235 |
| GGACACCCTTGGGTTCTAACCTGTTGCCTTT [GGACACCCTAG_LTGcore_CT_RTGcore_AA] (site GGACACCCTAG) (LTG core: CT, RTG core: AA) | 1.04 |
| GAGTCCAATTGGGTTCTAACCTGTTGCGTAG [GAGTCCACTAC_LTGcore_AT_RTGcore_CT] (site GAGTCCACTAC) (LTG core: AT, RTG core: CT) | 0.156 |
| GAGTCCTCTTGGGTTCTAACCTGTTGCCTAA [GAGTCCTCTAG_LTGcore_CT_RTGcore_TT] (site GAGTCCTCTAG) (LTG core: CT, RTG core: TT) | 1.08 |
| TCTACCCTGTGGGTTCTAACCTGTTGCTGAG [TCTACCCCTCA_LTGcore_TG_RTGcore_CT] (site TCTACCCCTCA) (LTG core: TG, RTG core: CT) | 0.0669 |
| GGTGCCCGCTGGGTTCTAACCTGTTGCCGGC [GGTGCCCCTCG_LTGcore_GC_RTGcore_GC] (site GGTGCCCCTCG) (LTG core: GC, RTG core: GC) | 0.148 |
| TCTACCCCTTGGGTTCTAACCTGTTGCTGAA [TCTACCCCTCA_LTGcore_CT_RTGcore_TT] (site TCTACCCCTCA) (LTG core: CT, RTG core: TT) | 0.241 |
| TGATACCCTTGGGTTCTAACCTGTTGCGTTT [TGATACCCTAC_LTGcore_CT_RTGcore_AA] (site TGATACCCTAC) (LTG core: CT, RTG core: AA) | 0.666 |
| AAACAGTCTTGGGTTCTAACCTGTTGCCTGT [AAACAGTCTAG_LTGcore_CT_RTGcore_AC] (site AAACAGTCTAG) (LTG core: CT, RTG core: AC) | 1.66 |
| GTCGCCCCTTGGGTTCTAACCTGTTGCTATG [GTCGCCCCTTA_LTGcore_CT_RTGcore_CA] (site GTCGCCCCTTA) (LTG core: CT, RTG core: CA) | 0.725 |
| GAGGCCTGGTGGGTTCTAACCTGTTGCCACC [GAGGCCTCTTG_LTGcore_GG_RTGcore_GG] (site GAGGCCTCTTG) (LTG core: GG, RTG core: GG) | 0.445 |
| ACGGGACCCTGGGTTCTAACCTGTTGCAGGG [ACGGGACCTCT_LTGcore_CC_RTGcore_CC] (site ACGGGACCTCT) (LTG core: CC, RTG core: CC) | 1.21 |
| AAACAGTCCTGGGTTCTAACCTGTTGCCTGG [AAACAGTCTAG_LTGcore_CC_RTGcore_CC] (site AAACAGTCTAG) (LTG core: CC, RTG core: CC) | 0.0864 |
| TAGAGGGCTTGGGTTCTAACCTGTTGCGGCA [TAGAGGGCTCC_LTGcore_CT_RTGcore_TG] (site TAGAGGGCTCC) (LTG core: CT, RTG core: TG) | 1.66 |
| GGGCGTGAGTGGGTTCTAACCTGTTGCCTAG [GGGCGTGCTAG_LTGcore_AG_RTGcore_CT] (site GGGCGTGCTAG) (LTG core: AG, RTG core: CT) | 0.154 |
| ACGGGACGATGGGTTCTAACCTGTTGCAGAG [ACGGGACCTCT_LTGcore_GA_RTGcore_CT] (site ACGGGACCTCT) (LTG core: GA, RTG core: CT) | 0.81 |
| GGGAGCCCTTGGGTTCTAACCTGTTGCTGTG [GGGAGCCCTCA_LTGcore_CT_RTGcore_CA] (site GGGAGCCCTCA) (LTG core: CT, RTG core: CA) | 0.589 |
| TGTATTCAGTGGGTTCTAACCTGTTGCCTAG [TGTATTCCTAG_LTGcore_AG_RTGcore_CT] (site TGTATTCCTAG) (LTG core: AG, RTG core: CT) | 0.0134 |
| TAAGAATCATGGGTTCTAACCTGTTGCCTTG [TAAGAATCTAG_LTGcore_CA_RTGcore_CA] (site TAAGAATCTAG) (LTG core: CA, RTG core: CA) | 1.03 |
| GGGCGTGCTTGGGTTCTAACCTGTTGCCTGG [GGGCGTGCTAG_LTGcore_CT_RTGcore_CC] (site GGGCGTGCTAG) (LTG core: CT, RTG core: CC) | 0.301 |
